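Results reflect a 48-hour exposure of cells in 96-well plates to compound at five concentrations. TGI: concentration producing complete growth inhibition.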
Legend:
Experiment in all cases: NCI tumour cell line growth inhibition, 48 h
A549 NSCLC = system: A549 NSCLC
HCT-15 colon = system: HCT-15 colon
LOX IMVI melanoma = system: LOX IMVI melanoma
SK-MEL-2 melanoma = system: SK-MEL-2 melanoma
OVCAR-3 ovarian = system: OVCAR-3 ovarian
M14 melanoma = system: M14 melanoma
NCI-H23 lung = system: NCI-H23 lung
COLO 205 colon = system: COLO 205 colon
BT-549 breast = system: BT-549 breast
MDA-MB-435 = system: MDA-MB-435

| SMILES | TGI (A549 NSCLC) [µM] | TGI (HCT-15 colon) [µM] | TGI (LOX IMVI melanoma) [µM] | TGI (SK-MEL-2 melanoma) [µM] | TGI (OVCAR-3 ovarian) [µM] | TGI (M14 melanoma) [µM] | TGI (NCI-H23 lung) [µM] | TGI (COLO 205 colon) [µM] | TGI (BT-549 breast) [µM] | TGI (MDA-MB-435) [µM] |
| --- | --- | --- | --- | --- | --- | --- | --- | --- | --- | --- |
| COC(OC)c1cccc2c1C1(O)CCC3(CC21)OCCCCO3 (stereo unspecified) | > 100 | > 100 | > 100 | > 100 | > 100 | > 100 | > 100 | > 100 |  |  |
| c1ccc(C2SCC3=Nc4ccccc4CN32)cc1 (stereo unspecified) | > 100 | > 100 | > 100 |  | 22.5 | > 100 | 62.3 | > 100 | > 100 | > 100 |
| C=C(C=O)c1c2c(nc3ccccc13)C(=O)c1ccccc1C2=O |  | 1.01 | 45 |  | 2.35 | 1.6 | 2.85 |  | 3.57 | > 100 |
| Cc1cccc(Nc2cn(COCc3ccccc3)c(=O)[nH]c2=O)c1 | > 100 | > 100 | > 100 |  | > 100 | > 100 | > 100 | > 100 | > 100 | > 100 |
| CC[C@@]1(O)C(=O)OCc2c1cc1n(c2=O)Cc2c-1nc1ccccc1c2CC[Si](C)(C)C | 7.61 | > 100 |  | 0.484 | 1.4 | 0.0155 | 0.0213 | 14.2 | > 100 | > 100 |
| O=C(N/N=C1\CCc2ccccc2C1)N/N=C1\CCc2ccccc2C1 | > 10 | > 10 |  | > 10 | > 10 | > 10 | > 10 | > 10 | > 10 | > 10 |
| COC(=O)C1=Nc2c(C)nn(-c3ccccc3)c2N=C(c2ccc(C)cc2)C1 | > 10 | > 10 | > 10 |  | > 10 | > 10 | > 10 | > 10 | > 10 | > 10 |
| CC(=O)[O-].CC(=O)[O-].O=C(N/N=C/c1cc(Cl)cc(Cl)c1[OH2+])c1ccncc1.[Co+2] | > 100 | > 100 | > 100 |  | > 100 | > 100 | > 100 | > 100 |  |  |
| CCOP(=O)(/C=C\n1cnc2c(=O)n(C(C)=O)c(N)nc21)OCC | > 100 | > 100 | > 100 |  | > 100 | > 100 | > 100 | > 100 | > 100 | > 100 |
| CC1CCCC2=C1C(c1ccc(Cl)cc1)n1c(s/c(=C\c3ccc(Cl)cc3)c1=O)=N2 (stereo unspecified) | > 100 | > 100 | > 100 | > 100 |  | > 100 |  | > 100 | > 100 | > 100 |
| O=C(c1cc(Cl)cc(Cl)c1)N(C(=S)OC12CC3CC(CC(C3)C1)C2)c1ccccc1 | > 100 | > 100 |  | 41.6 | > 100 | 56.7 | > 100 | 35.4 | > 100 | > 100 |
| N#Cc1c(-c2ccccc2)/c(=C\O)c(=O)n2c1nc1ccccc12 | > 100 | > 100 |  | > 100 |  | > 100 | > 100 | > 100 | > 100 | > 100 |

Reference: PubChem BioAssay (NCI)
